Assay results published in patent US20020082270A1, “Aminoquinazolines which inhibit signal transduction mediated by tyrosine kinases” (priority 2000, published 2002).

Target: T1, human EGF-R (Homo sapiens, UniProt P00533)
T1 construct: expressed in transfected cells; host or cells: F/L-HERc cells: murine IL-3-dependent FDC-P1 cells transduced with retroviral vector LXSN carrying human EGF-R cDNA (packaging line GP+E86)
Assay: Inhibition of EGF-dependent proliferation of F/L-HERc cells
Type: cell-based
Conditions: F/L-HERc cells (murine IL-3-dependent line expressing human EGF-R), stimulated with EGF 20 ng/ml, 48 hours, Cell Titer 96 AQueous assay
From the text: A cell line of murine origin dependent on interleukin-3-(IL-3) which was genetically modified to express functional human EGF-R was used here. The proliferation of these cells known as F/L-HERc can therefore be stimulated either by murine IL-3 or by EGF (cf. von Rüden, T. et al. in EMBO J. 7, 2749-2756 (1988) and Pierce, J. H. et al. in Science 239, 628-631 (1988)).
The starting material used for the F/L-HERc cells was the cell line FDC-P1, the production of which has been described by Dexter, T. M. et al. in J. Exp. Med. 152, 1036-1047 (1980). Alternatively, however, other growth-factor-dependent cells may also be used (cf. for example Pierce, J. H. et al. in Science 239, 628-631 (1988), Shibuya, H. et al. in Cell 70, 57-67 (1992) and Alexander, W. S. et al. in EMBO J. 10, 3683-3691 (1991)). […]
In order to determine the inhibitory activity of the compounds according to the invention the relative cell number was measured in O.D. units using the Cell Titer 96™ AQueous Non-Radioactive Cell Proliferation Assay (Promega). […]

T1 sequence (P00533 25-1210): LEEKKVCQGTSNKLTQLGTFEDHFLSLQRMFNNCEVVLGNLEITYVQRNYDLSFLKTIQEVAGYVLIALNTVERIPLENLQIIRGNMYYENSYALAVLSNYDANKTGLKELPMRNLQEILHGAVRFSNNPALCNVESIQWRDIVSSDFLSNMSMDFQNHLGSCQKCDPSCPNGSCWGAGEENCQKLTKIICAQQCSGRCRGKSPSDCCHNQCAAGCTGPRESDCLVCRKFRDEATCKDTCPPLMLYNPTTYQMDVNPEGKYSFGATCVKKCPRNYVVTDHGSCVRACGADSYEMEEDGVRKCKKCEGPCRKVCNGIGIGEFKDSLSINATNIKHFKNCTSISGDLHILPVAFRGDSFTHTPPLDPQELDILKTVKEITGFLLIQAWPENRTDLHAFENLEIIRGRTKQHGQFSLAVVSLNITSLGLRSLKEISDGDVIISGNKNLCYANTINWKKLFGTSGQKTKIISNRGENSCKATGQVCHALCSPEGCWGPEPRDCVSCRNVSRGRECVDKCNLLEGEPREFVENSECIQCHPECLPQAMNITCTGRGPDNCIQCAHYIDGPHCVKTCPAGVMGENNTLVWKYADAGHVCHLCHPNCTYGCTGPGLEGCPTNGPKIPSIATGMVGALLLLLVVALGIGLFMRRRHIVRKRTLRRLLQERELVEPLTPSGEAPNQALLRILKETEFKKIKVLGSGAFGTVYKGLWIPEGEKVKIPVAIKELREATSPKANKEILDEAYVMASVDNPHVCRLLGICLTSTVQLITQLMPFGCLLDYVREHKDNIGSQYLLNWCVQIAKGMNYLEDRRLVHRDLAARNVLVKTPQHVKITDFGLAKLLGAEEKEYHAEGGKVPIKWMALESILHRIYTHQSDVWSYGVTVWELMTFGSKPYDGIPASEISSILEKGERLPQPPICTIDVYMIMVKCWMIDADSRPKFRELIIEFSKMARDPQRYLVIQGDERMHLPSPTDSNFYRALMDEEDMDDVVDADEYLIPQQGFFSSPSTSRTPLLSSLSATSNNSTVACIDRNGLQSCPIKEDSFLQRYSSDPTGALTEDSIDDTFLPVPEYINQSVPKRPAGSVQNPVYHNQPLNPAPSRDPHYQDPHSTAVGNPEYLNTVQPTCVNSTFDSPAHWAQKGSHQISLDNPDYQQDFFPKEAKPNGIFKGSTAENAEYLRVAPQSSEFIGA

- IC50: 12 nM
Structure (SMILES): C=CC(=O)Nc1cc2c(N[C@H](C)c3ccccc3)ncnc2cc1OCCN1CCN(C2COC(=O)C2)CC1 (stereo partly drawn) [1 (2), 4-[(R)-(1-phenylethyl)amino]-7-{2-[4-(2-oxo-tetrahydrofuran-4-yl)-piperazin-1-yl]-ethoxy}-6-[(vinylcarbonyl)amino]-quinazoline]
